“Also recorded” adds a separate entry of the source. Like-named read-outs stand apart in the source and are kept apart here.

Consider 14 compounds from US20240024333A1, “USE OF SMALL MOLECULE FAK ACTIVATORS TO PROMOTE MUCOSAL HEALING” (Regents of the University of Minnesota, priority 2020, published 2024).

The conditions of data set [1]: over 8 weeks; cited from earlier work.
The target in another data set is T1, Pyk2 (Homo sapiens, UniProt Q14289).
T1 construct: endogenous in cells; host or cells: Caco-2
Briefly: Pyk2 activation in intact cells. The format is cell-based.

Data set [2] has as its system intestinal mucosal ulcers. The experiment in a line: Intestinal mucosal healing in vivo (model not given). Set-up: species or system mice. Conditions: mouse.
The subject of a further data set is Caco-2 cells. Briefly: Caco-2 monolayer wound closure assay. It counts as cell-based, human. Conditions: for monolayer wound closure / epithelial sheet migration (in words): in vitro, 24 hours. How it is done:
Caco-2 cells were seeded at 75-80% confluence into collagen I coated 6-well plates. When the cells reached 100% confluence, wounds were made in the monolayers with non-barrier autoclaved tips. Wound images were captured using an inverted light microscope (OLYMPUS CK2, Center Valley, PA) at 0 hours and 24 hours after treatment with DMSO or small molecules. Wound areas were measured with Image J software.

The target in another data set is T2, FAK (Homo sapiens, UniProt Q05397).
T2 construct: endogenous in cells; host or cells: Caco-2 (human, ATCC)
Briefly: Cell-based FAK-Tyr-397 activation (Western blot, Caco-2 cells). The following applies: for FAK activation / FAK-Tyr-397 phosphorylation (in words): vs. DMSO vehicle control; for FAK-Tyr-397/FAK fold change: Cell-based FAK-Tyr-397 activation. How it is done:
Human Caco-2 cells were from ATCC (Manassas, VA) and maintained in Dulbecco's Modified Essential Eagle's Medium supplemented with 10% FBS as described by us previously 25. 80-90% confluent Caco-2 cells were seeded into cell culture plates pacificated with 1% heat inactivated bovine serum albumin to prevent adhesion and avoid adhesion-associated background FAK activation. Suspended cells were then treated with DMSO (0.1%) or small molecules for 1 hour before harvesting for Western blotting.
Cells were lysed and protein concentration was determined via bicinchoninic acid protein assay (Thermo Fisher, Rockford, IL). […] Images were taken using a LICOR-Odyssey-Fc imaging system (LI-COR Biosciences, Lincoln, NE).
Background: Immunoblotting shows a protein as a band on a membrane.

The target of a further data set is T3, Src (Homo sapiens, UniProt P12931).
T3 construct: endogenous in cells; host or cells: Caco-2
Briefly: Src activation in intact cells. It counts as cell-based.

The subject of data set [3] is mice. Briefly: Tolerability and toxicity in mice.
Another data set can be described thus: Human plasma stability. The format is in vitro ADME. The following applies: at 6 h.
For data set [4] the following is noted: mouse, in vivo; for course of plasma levels after enteral dosing (in words): 10 mg/kg.
A short description of the next data set: in vivo. The following applies: mouse.
A short description of data set [5]: Cytotoxicity (cells not named). The format is cell-based.
The nature of data set [6]: B/P ratio and blood-brain barrier crossing. The format is in vivo. The following applies: in vivo.
Data set [7] relates to IMR-90 human pulmonary fibroblasts. The experiment in a line: Cytotoxicity in IMR-90 cells. The format is cell-based.
Data set [8] relates to SH-SY5Y human neuronal cells. Briefly: Cytotoxicity in SH-SY5Y cells. It counts as cell-based.
Data set [9] has as its system mice. The following applies: mouse, in vivo.
A further data set in a line: log D determination. Conditions: pH 7.4. The format is physicochemical. The source says:
(§1) The most successful molecules underwent in vitro ADMET assays, including mouse and human metabolic stability, solubility (pH 7.4), Caco-2 (permeability), and log D determination. We will evaluate lead candidates for drug-like properties, including aqueous solubility (PBS buffer, pH 7.4), pKa, lipophilicity, chemical stability at pH 1 (the pH of the stomach), pH 6 (small intestine), A-B partitioning (octanol-PBS buffer, pH 7.4), liver microsomal stability as an indication of potential first-pass metabolism (microsomes from mouse and humans), substrate potential for isoforms of human P450 such as CYP3A4, cell permeability (Caco-2 cells), hERG toxicity (cell lines), mutagenesis, and plasma protein binding (mouse & human). […]. Computed physical properties that correlate with good oral bioavailability and cell permeability will be calculated for new compounds throughout the optimization process and will […] also influence lead compound selection as will ligand efficiency (LE) and lipophilic efficiency (LLE). Molecules will be administered by gavage to mice at 30 mg/kg, and we will measure plasma levels at 2 and 4 hours. The most successful molecules in this regard (with the highest levels at 2 and 4 hours) may be further modified by developing combinations of modifications at different parts of the molecule.

For data set [10], the system named is ischemic ileal mucosal ulcers. Briefly: Ischemic ileal ulcer model (acetic-acid-soaked discs on serosa). The format is in vivo, mice. Conditions: mice; 40: 30 mg/kg/day by osmotic minipump, 4 days; 30 mg/kg/day.
For another data set, the target named is hERG (Homo sapiens, UniProt Q12809). Briefly: hERG toxicity. It counts as cell-based. The following applies: human.
Excerpt: as §1
On the technique in general: Block of hERG is tested as a sign of cardiac risk.

A short description of the next data set: Mini-Ames.
Excerpt: as §1

The next data set is described as follows: Plasma protein binding. The format is in vitro ADME.
Excerpt: as §1

A further data set is described as follows: Solubility. The format is physicochemical.
Excerpt: as §1

T2 sequence (Q05397 whole entry): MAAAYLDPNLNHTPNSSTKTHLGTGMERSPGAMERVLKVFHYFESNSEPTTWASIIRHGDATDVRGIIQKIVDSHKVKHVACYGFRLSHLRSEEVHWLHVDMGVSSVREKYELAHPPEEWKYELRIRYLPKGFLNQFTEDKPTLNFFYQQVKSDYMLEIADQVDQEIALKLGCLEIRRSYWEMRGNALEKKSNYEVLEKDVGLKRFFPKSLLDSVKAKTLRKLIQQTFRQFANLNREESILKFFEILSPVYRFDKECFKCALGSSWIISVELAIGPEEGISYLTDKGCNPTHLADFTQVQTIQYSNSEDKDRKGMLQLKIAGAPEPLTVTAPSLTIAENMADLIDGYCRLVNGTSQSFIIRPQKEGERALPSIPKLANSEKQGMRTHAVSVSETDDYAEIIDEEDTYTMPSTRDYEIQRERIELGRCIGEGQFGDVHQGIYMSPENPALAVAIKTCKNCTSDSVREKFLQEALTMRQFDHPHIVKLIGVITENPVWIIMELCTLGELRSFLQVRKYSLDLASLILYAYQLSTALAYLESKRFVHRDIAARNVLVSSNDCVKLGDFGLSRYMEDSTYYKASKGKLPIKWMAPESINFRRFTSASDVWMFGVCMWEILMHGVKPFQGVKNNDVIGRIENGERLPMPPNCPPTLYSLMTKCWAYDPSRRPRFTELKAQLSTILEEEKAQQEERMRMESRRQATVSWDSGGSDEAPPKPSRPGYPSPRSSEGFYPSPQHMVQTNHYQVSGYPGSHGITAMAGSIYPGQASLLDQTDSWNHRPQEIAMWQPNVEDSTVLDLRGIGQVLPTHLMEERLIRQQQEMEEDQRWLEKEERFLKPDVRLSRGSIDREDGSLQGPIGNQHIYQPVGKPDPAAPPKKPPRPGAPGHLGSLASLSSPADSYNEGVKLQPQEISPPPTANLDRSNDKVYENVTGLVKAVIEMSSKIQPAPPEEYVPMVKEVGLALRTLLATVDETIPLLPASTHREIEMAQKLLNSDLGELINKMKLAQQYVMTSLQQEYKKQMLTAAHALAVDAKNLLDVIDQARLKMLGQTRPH
T1 sequence (Q14289 whole entry): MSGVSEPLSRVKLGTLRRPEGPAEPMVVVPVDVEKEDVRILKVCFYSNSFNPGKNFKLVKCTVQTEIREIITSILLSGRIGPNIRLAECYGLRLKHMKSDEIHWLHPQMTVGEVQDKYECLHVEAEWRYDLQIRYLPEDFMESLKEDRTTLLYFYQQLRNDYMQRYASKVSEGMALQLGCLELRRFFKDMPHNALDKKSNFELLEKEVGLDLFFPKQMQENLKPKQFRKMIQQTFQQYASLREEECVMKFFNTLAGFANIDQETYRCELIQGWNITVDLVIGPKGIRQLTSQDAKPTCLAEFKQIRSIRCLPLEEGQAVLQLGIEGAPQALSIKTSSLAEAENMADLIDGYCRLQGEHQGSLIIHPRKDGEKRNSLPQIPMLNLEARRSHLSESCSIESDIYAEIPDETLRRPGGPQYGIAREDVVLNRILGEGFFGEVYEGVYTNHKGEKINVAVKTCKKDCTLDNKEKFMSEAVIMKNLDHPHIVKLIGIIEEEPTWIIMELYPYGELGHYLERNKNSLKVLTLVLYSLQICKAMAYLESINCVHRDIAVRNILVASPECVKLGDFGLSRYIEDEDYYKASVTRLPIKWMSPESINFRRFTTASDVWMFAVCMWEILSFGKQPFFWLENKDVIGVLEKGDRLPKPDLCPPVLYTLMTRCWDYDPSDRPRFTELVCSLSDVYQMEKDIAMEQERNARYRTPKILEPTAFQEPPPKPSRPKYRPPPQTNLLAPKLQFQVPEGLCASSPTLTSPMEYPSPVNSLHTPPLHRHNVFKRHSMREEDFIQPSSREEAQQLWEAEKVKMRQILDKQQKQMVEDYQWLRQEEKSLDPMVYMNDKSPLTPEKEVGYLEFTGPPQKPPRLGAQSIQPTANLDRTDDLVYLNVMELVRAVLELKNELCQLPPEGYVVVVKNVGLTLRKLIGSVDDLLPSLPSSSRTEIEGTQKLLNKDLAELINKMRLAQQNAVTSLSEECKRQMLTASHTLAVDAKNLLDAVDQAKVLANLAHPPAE
T3 sequence (P12931 whole entry): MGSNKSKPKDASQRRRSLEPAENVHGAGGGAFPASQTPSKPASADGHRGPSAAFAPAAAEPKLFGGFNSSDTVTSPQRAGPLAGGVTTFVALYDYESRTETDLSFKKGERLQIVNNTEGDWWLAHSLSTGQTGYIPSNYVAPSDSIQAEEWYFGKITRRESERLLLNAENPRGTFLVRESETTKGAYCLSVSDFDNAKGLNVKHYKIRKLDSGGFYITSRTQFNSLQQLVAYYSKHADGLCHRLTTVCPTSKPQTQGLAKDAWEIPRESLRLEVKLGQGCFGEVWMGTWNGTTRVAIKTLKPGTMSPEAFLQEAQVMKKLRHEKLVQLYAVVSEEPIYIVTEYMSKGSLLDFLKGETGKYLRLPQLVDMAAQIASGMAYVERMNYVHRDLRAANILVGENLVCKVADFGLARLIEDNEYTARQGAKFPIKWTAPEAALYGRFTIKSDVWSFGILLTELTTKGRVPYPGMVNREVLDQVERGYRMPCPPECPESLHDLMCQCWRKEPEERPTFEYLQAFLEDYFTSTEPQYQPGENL
Sequence of hERG (Q12809 whole entry): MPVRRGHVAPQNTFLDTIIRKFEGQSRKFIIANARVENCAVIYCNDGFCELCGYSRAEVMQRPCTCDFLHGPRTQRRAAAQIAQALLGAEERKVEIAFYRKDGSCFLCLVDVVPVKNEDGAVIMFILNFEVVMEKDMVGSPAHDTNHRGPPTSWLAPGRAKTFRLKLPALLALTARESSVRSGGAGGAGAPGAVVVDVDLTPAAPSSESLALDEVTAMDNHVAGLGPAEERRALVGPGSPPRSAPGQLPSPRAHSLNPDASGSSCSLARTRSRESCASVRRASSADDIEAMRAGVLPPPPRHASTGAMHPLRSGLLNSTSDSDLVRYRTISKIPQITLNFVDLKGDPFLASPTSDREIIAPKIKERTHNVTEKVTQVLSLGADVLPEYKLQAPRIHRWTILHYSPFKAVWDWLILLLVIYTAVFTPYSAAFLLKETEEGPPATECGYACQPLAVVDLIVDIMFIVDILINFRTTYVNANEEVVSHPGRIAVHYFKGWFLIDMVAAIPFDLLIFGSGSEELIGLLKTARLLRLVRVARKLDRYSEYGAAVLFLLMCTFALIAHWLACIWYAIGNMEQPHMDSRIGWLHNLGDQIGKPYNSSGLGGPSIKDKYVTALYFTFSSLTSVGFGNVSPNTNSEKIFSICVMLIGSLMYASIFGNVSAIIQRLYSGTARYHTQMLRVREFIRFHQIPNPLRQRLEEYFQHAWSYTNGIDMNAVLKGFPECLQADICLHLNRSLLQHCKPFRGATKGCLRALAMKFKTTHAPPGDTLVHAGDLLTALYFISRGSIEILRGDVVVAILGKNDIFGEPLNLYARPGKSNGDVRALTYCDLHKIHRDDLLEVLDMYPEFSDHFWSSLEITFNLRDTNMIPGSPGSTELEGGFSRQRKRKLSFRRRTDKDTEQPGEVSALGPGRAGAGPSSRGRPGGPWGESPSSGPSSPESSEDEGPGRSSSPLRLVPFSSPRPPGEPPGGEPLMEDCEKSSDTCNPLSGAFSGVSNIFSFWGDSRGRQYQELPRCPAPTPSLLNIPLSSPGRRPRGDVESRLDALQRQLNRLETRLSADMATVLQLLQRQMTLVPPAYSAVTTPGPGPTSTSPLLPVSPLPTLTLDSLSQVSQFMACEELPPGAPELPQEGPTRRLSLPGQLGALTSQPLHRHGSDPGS

In the case of `CCCCC(C)(O)C/C=C/[C@H]1[C@H](O)CC(=O)[C@@H]1CCCCCCC(=O)OC` (mixture of isomers) [Misoprostol], in data set [1], the serious side effects is on record as 8%.
In the case of `COc1ccc(C2CCCN2C(=O)Nc2cc(C(F)(F)F)ccc2N2CCOCC2)cc1` (stereo not drawn) [Compound 9], the “Pyk2 activation (in words)” value at Pyk2 (intact cells) is “activating neither”. The “intestinal mucosal healing in vivo (in words)” value in data set [2] is “stimulated”. Besides, in the data set on Caco-2 cells, the “monolayer wound closure / epithelial sheet migration (in words)” value is “stimulated monolayer wound closure”. For the same compound, at FAK, the “concentration as low as which FAK is activated” value turned out to be 10 nM and the “FAK activation / FAK-Tyr-397 phosphorylation (in words)” value is “increased FAK-Tyr 397 phosphorylation”. Moreover, the “Src activation (in words)” value at Src (intact cells) was “activating neither”.
Consider `COc1ccc(C2CCCN2C(=O)CC(NC(N)=O)c2ccccc2Cl)cc1OC` (stereo not drawn) [Compound 10], for which the “concentration as low as which FAK is activated” value at FAK is recorded as 10 nM.
Consider `O=C(Nc1cc(C(F)(F)F)ccc1C1CCOCC1)N1CCCC1c1ccccc1` (stereo not drawn) [Compound 14], for which, on FAK, the FAK-Tyr-397/FAK fold change was found to be 1.0 fold change and the “FAK activation / FAK-Tyr-397 phosphorylation (in words)” value is “reduced activation”.
Regarding `COc1ccc(CC(C)C(=O)Nc2ccc(N(C)C)cc2C)cc1` (stereo not drawn) [Compound 19], the “FAK activation / FAK-Tyr-397 phosphorylation (in words)” value at FAK was “does not enhance FAK activation”.
With `O=C(Nc1cc(C(F)(F)F)ccc1N1CCOCC1)N1CCCC1C1CCCCC1` (stereo not drawn) [Compound 21], in the data set on Caco-2 cells, the “monolayer wound closure / epithelial sheet migration (in words)” value was “promote the healing of intestinal epithelial wounds in vitro”. Moreover, on FAK, the “concentration level of FAK activation (in words)” value is recorded as “nanomolar to picomolar levels” and the “FAK activation / FAK-Tyr-397 phosphorylation (in words)” value was “increased; also recorded: stimulate FAK phosphorylation at remarkably low concentrations”.
On to `O=C(Nc1cc(F)ccc1N1CCOCC1)N1CCCC1c1ccncc1` (stereo not drawn) [Compound 25], for which the “FAK activation / FAK-Tyr-397 phosphorylation (in words)” value on FAK is given as “does not impair activity”.
The same measure, in the same setting: under `COc1ccc(C(CNC(=O)Nc2cc(C(F)(F)F)ccc2N2CCOCC2)N(C)C)cc1` (stereo not drawn) [Compound 31] stands “seemed to activate FAK”; under `O=C(Nc1cc(C(F)(F)F)ccc1N1CCOCC1)N1CCCC1C1CCCCC1` (stereo not drawn) [Compound 36], “seemed to activate FAK”.
For the compound `O=C(Nc1cc(C(F)(F)F)ccc1N1CCOCC1)N1CCCC1c1ccccc1` (stereo not drawn) [Compound 37], on FAK, the “FAK activation / FAK-Tyr-397 phosphorylation (in words)” value is “seemed to activate FAK”.
What is called half-life is the time needed for the level to fall by half in the phase considered. Lower therefore signals rapid decline. Consider `CN(C)C(CNC(=O)Nc1cc(C(F)(F)F)ccc1N1CCOCC1)c1ccncc1` (stereo not drawn) [Compound 40], for which, on Pyk2 (at 10 μM), the “Pyk2 activation (in words)” value was “does not activate”. In the data set with mice [3], this compound showed a lethal single dose of 480 mg/kg. The same compound gave a Human plasma stability in the data set “Human plasma stability” of 88.56% at 6 h. In addition, the “course of plasma levels after enteral dosing (in words)” value in data set [4] is listed as “decline by two hours”; in data set [4] (2 h), “decrease by 2 hours”. The “plasma level after 240 mg/kg as multiple of therapeutic plasma level” value in data set [4] (1 h) was ~6*10^6 ×. In “in vivo” (1.25 mg/kg), the concentration at 4 days worked out at 26 ng/mL. For the same compound, the values for the half-life in “in vivo” (T1/2) and in the data set “in vivo” (plasma half-life) were roughly 90 min and 90 min, respectively. Besides, the “cytotoxicity (in words)” value in [5] is given as “no cytotoxicity at 10000× higher than effective doses; also recorded: neither cytotoxic nor carcinogenic”. In data set [6], the “blood-brain barrier crossing (in words)” value is “cross the blood-brain barrier”. The “Cytotoxicity (LD50)” value in data set [7] (IMR90) and in data set [8] was “SYSY (LD50)~1 mM” in each case. Also, the “concentration at which cytotoxicity is displayed” value in data set [7] (IMR-90) and in data set [8] was 1 mM throughout. In addition, the “cytotoxic concentration as multiple of the 100 pM that activates FAK” value in data set [7] (IMR-90) and in [8] was 10^7 × in each case. Also, the “neurotoxicity (in words)” value with mice [9] is listed as “no neurotoxicity was detected”. Further, in the data set with mice [9], the “renal/hepatic histology, creatinine, ALT (in words)” value is “normal”. For the same compound, the “serum chemistries (in words)” value in the data set on mice [9] (120 mg/kg) is recorded as “normal”. The “log D7.4” value in “log D determination” is given as “log D7.4 = 2.87”. In addition, in [10], the “ischemic ulcer healing (in words)” value is “much smaller ulcers; also recorded: acceleration of healing”. Further, on hERG, the hERG entry was “hERG > 30 μM”. The Mini-Ames result in the data set “Mini-Ames” is reported as “negative”. Moreover, in the data set on Caco-2 cells (100 nM), the “wound closure after two 2-hour exposures vs full 24 hours of exposure” value was “equivalent stimulation of wound closure”. In the data set on Caco-2 cells (100 nM, medium changed back after exposure), the “wound closure at 24 hours after three-hour exposure vs 24 hours exposure” value is listed as “same effect as 24 hours”. Also, the “wound closure with proliferation blocked by hydroxyurea (in words)” value with Caco-2 cells (hydroxyurea present) is listed as “still stimulates Caco-2 monolayer wound closure”. The “monolayer wound closure / epithelial sheet migration (in words)” value with Caco-2 cells is listed as “stimulates wound closure; also recorded: promotes epithelial monolayer wound healing; also recorded: dose-responsive stimulation”. In the data set “Plasma protein binding”, the Plasma protein binding is recorded as 91.39%. Besides, in the data set “Solubility”, the “water solubility / need of DMSO (in words)” value is given as “does not require DMSO; also recorded: truly water soluble”. Further, the “Src activation (in words)” value on Src (at 10 μM) is on record as “does not activate”.
Turning to `O=C(Nc1ccccc1N1CCOCC1)N1CCCC1c1ccncc1` (stereo not drawn) [Compound 46], at FAK, the FAK-Tyr-397/FAK fold change is listed as 1.1 fold change and the “FAK activation / FAK-Tyr-397 phosphorylation (in words)” value is “did not induce FAK phosphorylation”.
As to `CCN(C(=O)Nc1ccccc1N1CCOCC1)C(C)c1ccccc1` (stereo not drawn) [Compound 48], on FAK, the FAK-Tyr-397/FAK fold change was determined as 1.1 fold change and the “FAK activation / FAK-Tyr-397 phosphorylation (in words)” value was “did not induce FAK phosphorylation”.
Turning to `O=C(Nc1cc(C(F)(F)F)ccc1N1CCOCC1)N1CCCC1c1ccc(O)cc1` (stereo not drawn) [Compound 49], the FAK-Tyr-397/FAK fold change at FAK came out at 1.1 fold change.
